Patent US20230399342A1 (Incyte Corporation, priority 2022, published 2023)

What was measured:
[1] = molecular target: DGKα (Homo sapiens (Human), UniProt P23743); experiment: In vitro DGKα inhibition assay (ADP-Glo); type: biochemical; conditions: His-tagged human recombinant enzyme, 0.1 nM DGKα, 50 μM ATP, 20 μM DLG, 90 minute incubation
Method: (§1) The DGKα and DGKξ biochemical reactions were performed using His-tagged human recombinant enzymes (Signal Chem, DGKα, #D21-1OBH; DGKξ, #D30-10H)) and DLG (Dilauroyl-sn-glycerol) lipid substrate (Signal Chem, #D430-59). ADP-Glo assay was performed using ADP-Glog™ kinase Assay kit (Promega, #V9104). The reactions were carried out in assay buffer containing 40 mM Tris, pH 7.5, 0.1% CHAPS, 0.1% Prionex, 40 mM NaCl, 5 mM MgCl2, 1 mM CaCl2, and 1 mM DTT. DGKα reactions contained 0.1 nM DGKα, 50 μM ATP, and 20 μM DLG. And DGKC reactions contained 0.4 nM DGK, 30 μM ATP, and 20 μM DLG.
(§2) For compound inhibition studies, 40 nL test compound in DMSO was added to wells of white polystyrene plates in 384-well (Greiner, #784075) or 1536-well format (Greiner, #782075). Compounds were added with top concentration of 2 mM with 11 point, 3-fold dilution series. Enzyme solution (contains 2×DGK enzyme concentration in Ix assay buffer) was added to the plate in 2 μL/well volume, followed by 2 μL/well of substrate solution (contains 2×concentration of ATP and DLG substrate in Ix assay buffer). Plates were then centrifuged for 1 min at 1200 RPM and sealed or lidded. For 4 μL reaction volume, test compounds were therefore diluted 100× to final top concentration of 20 μM. After 90 minute incubation, reactions were quenched by addition of 2 μL/well Promega ADP-Glo Reagent, followed by centrifugation and lidding. After 60 min incubation, 2 μL/well Promega Kinase Detection Reagent was added, plates centrifuged, and incubated for 30 min. Plates were then read using Luminescence method on BMG PHERAstar FSX plate reader. Percent inhibition was calculated and IC50s were determined using 4-parameter fit in Genedata Screener. Labcyte Echo acoustic dispenser was used for compound addition, and Formulatrix Tempest liquid handler was used for all reagent dispenses.

[2] = molecular target: DGKζ (Homo sapiens (Human), UniProt Q13574); experiment: In vitro DGKζ inhibition assay (ADP-Glo); type: biochemical; conditions: His-tagged human recombinant enzyme, 0.4 nM DGK, 30 μM ATP, 20 μM DLG, 90 minute incubation
Method: as §1, §2

Chain of DGKζ (Q13574 whole entry): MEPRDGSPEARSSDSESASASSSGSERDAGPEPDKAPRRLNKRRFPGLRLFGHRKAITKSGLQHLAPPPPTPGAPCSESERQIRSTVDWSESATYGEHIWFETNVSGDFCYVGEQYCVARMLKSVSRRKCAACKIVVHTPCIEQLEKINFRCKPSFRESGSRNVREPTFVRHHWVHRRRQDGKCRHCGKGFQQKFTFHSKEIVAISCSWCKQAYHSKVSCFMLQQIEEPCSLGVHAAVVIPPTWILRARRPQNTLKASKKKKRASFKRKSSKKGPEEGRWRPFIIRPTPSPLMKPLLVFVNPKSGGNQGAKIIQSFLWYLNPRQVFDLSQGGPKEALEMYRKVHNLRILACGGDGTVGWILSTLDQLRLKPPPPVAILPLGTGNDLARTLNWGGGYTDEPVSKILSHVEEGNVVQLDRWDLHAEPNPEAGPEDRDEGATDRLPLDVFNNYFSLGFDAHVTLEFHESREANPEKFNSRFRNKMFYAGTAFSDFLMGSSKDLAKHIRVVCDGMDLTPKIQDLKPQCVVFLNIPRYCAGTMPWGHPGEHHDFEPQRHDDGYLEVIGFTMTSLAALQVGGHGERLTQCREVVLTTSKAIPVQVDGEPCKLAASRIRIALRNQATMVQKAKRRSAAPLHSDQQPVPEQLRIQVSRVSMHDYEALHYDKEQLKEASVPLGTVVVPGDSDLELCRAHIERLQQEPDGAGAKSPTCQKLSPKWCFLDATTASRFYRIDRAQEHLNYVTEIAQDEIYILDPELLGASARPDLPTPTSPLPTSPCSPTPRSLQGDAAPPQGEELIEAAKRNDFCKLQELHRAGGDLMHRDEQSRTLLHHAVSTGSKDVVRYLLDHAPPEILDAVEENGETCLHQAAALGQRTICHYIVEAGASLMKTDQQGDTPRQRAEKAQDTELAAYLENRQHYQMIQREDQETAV
Chain of DGKα (P23743 whole entry): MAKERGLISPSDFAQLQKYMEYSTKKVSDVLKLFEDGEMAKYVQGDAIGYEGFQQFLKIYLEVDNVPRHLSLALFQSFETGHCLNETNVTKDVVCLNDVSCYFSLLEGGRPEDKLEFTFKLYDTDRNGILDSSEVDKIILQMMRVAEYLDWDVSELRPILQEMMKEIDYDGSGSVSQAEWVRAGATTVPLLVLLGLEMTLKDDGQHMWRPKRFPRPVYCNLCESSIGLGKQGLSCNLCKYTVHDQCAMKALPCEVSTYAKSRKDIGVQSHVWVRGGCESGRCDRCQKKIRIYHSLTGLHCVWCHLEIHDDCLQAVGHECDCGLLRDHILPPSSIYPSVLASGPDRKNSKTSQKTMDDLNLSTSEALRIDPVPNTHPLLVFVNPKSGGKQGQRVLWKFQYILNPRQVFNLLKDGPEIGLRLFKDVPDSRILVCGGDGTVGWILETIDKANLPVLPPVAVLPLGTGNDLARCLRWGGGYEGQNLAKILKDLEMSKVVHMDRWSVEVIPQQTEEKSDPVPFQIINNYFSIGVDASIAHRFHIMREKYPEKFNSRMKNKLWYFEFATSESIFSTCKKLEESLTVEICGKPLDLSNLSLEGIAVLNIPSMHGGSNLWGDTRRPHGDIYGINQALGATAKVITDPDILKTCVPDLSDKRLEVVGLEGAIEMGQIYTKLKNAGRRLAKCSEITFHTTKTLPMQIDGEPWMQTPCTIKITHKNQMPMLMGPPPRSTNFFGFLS

| SMILES | IC50 [1] | IC50 [2] |
| --- | --- | --- |
| Cc1nc2c(N3C[C@@H](C)N(C(c4ccc(C(F)(F)F)cc4)C4CC(F)(F)C4)C[C@@H]3C)nc3nncn3c2n1C[C@@H]1CCCO1 (single isomer, unassigned) [Example 43] | ≤ 20 nM | ≤ 20 nM |
| Cc1nc2c(N3C[C@@H](C)N(C(c4ccc(F)c(Cl)c4)C4CC(F)(F)C4)C[C@@H]3C)nc3nncn3c2n1C[C@@H]1CCCO1 (single isomer, unassigned) [Example 44] | ≤ 20 nM | ≤ 20 nM |
| Cc1nc2c(N3C[C@@H](C)N(C(c4ccc(C(F)(F)F)c(F)c4)C4CC(F)(F)C4)C[C@@H]3C)nc3nncn3c2n1C[C@@H]1CCCO1 (single isomer, unassigned) [Example 45] | ≤ 20 nM | ≤ 20 nM |
| Cc1nc2c(N3C[C@@H](C)N(C(c4ccc(Cl)c(F)c4)C4CC(F)(F)C4)C[C@@H]3C)nc3nncn3c2n1C[C@@H]1CCCO1 (single isomer, unassigned) [Example 50] | ≤ 20 nM | ≤ 20 nM |
| C[C@@H]1CN(c2nc3nncn3c3c2ncn3CCN(C)C)[C@@H](C)CN1C(c1ccc(Cl)cc1)C1CC(F)(F)C1 (single isomer, unassigned) [Example 64] | ≤ 20 nM | ≤ 20 nM |
| Cc1nc2c(N3C[C@@H](C)N(C(c4ccc(C(F)F)c(F)c4)C(C)C)C[C@@H]3C)nc3nncn3c2n1C[C@@H]1CCCO1 (single isomer, unassigned) [Example 81] | ≤ 20 nM | ≤ 20 nM |
| Cc1nc2c(N3C[C@@H](C)N([C@@H](c4ccc(F)c(Cl)c4)C(C)C)C[C@@H]3C)nc3nncn3c2n1C[C@@H]1CCCO1 (single isomer, unassigned) [Example 87] | ≤ 20 nM | ≤ 20 nM |
| Cc1nc2c(N3C[C@@H](C)N([C@H](c4ccc(F)cc4)c4ccc(F)c(C(F)(F)F)n4)C[C@@H]3C)nc3nncn3c2n1C[C@@H]1CCCO1 (single isomer, unassigned) [Example 104] | ≤ 20 nM | ≤ 20 nM |
| CC[C@@H]1CN(c2nc3nncn3c3c2nnn3C[C@@H]2CCCO2)[C@@H](C)CN1C(c1ccc(F)cc1)C1CC(F)(F)C1 (single isomer, unassigned) [Example 120] | ≤ 20 nM | ≤ 20 nM |
| Cc1nc2c(N3C[C@@H](C)N(C(c4ccc(Cl)cc4)c4ccc(F)c(Cl)c4)C[C@@H]3C)nc3nncn3c2n1C[C@@H]1CCCO1 (single isomer, unassigned) [Example 140] | ≤ 20 nM | ≤ 20 nM |
| Cc1nc2c(N3C[C@@H](C)N(C(c4ccc(Br)cc4)c4ccc(F)c(Cl)c4)C[C@@H]3C)nc3nncn3c2n1C[C@@H]1CCCO1 (single isomer, unassigned) [Example 141] | ≤ 20 nM | ≤ 20 nM |
| C[C@@H]1CN(c2nc3nncn3c3scnc23)[C@@H](C)CN1C(c1ccc(F)cc1)c1ccc(F)cc1 [Example 1, 4-((2S,5R)-4-(Bis(4-fluorophenyl)methyl)-2,5-dimethylpiperazin-1-yl)thiazolo[4,5-e][1,2,4]triazolo[4,3-a]pyrimidine] | ≤ 20 nM | 20 to 200 nM |
| Cc1nnc2nc(N3C[C@@H](C)N(C(c4ccc(F)cc4)c4ccc(F)cc4)C[C@@H]3C)c3ncsc3n12 [Example 2, 4-((2S,5R)-4-(Bis(4-fluorophenyl)methyl)-2,5-dimethylpiperazin-1-yl)-8-methylthiazolo[4,5-e][1,2,4]triazolo[4,3-a]pyrimidine] | ≤ 20 nM | 200 to 2000 nM |
| C[C@@H]1CN(c2nc3nncn3c3sc(C(F)F)nc23)[C@@H](C)CN1C(c1ccc(F)cc1)c1ccc(F)cc1 [Example 3, 4-((2S,5R)-4-(Bis(4-fluorophenyl)methyl)-2,5-dimethylpiperazin-1-yl)-2-(difluoromethyl)thiazolo[4,5-e][1,2,4]triazolo[4,3-a]pyrimidine] | ≤ 20 nM | 200 to 2000 nM |
| C[C@@H]1CN(c2nc3nncn3c3ccsc23)[C@@H](C)CN1C(c1ccc(F)cc1)c1ccc(F)cc1 [Example 8, 5-((2S,5R)-4-(Bis(4-fluor ophenyl)methyl)-2,5-dimethylpiperazin-1-yl)thieno[2,3-e][1,2,4]triazolo[4,3-a]pyrimidine] | – | 200 to 2000 nM |
